According to patent publication EP1561465A2, “Methods of use of fluoroquinolone compounds against bacteria” (LG Life Sciences, Ltd., priority 1999, dated 2001):
In brackets after ≈: the same amount, converted by molar mass. Read-outs that look alike come from different tables or passages of the source.

Experiments:
[1] = test system: anaerobic cocci and Gram positive pathogens; experiment: organism not typed; format: cell-based; details: read-out: MIC90s
[2] = parameters: species or system healthy volunteers; details: human, in vivo, po
[3] = test system: E. coli; experiment: MIC and MBC by microdilution in Mueller-Hinton broth, uropathogens; format: cell-based
Description: MICs and MBCs were determined by a microdilution method with Mueller-Hinton broth. An inoculum of 1.3-9.4 x 10^5 colony forming units (CFU) per ml was used.
Strains included a reference strain E. coli ATCC 25922, susceptible to nalidixic acid (Nal-S) and the following clinical isolates obtained from complicated UTI patients: E. coli (resistant to nalidixic acid), K. pneumoniae, P. mirabilis , P. aeruginosa, […] (3 strains) and Enterococcus faecalis (2 strains).

[4] = test system: K. pneumoniae; experiment: Urinary bactericidal titers (UBT) and AUBTC of volunteers' urine; format: cell-based; details: K. pneumoniae (16) Laboratory No. 595; urine after gemifloxacin 320 mg or ofloxacin 400 mg
[5] = test system: enteropathogenic bacterial strains; experiment: MIC by agar dilution (NCCLS M7-A4), enteropathogenic isolates pooled; format: cell-based; details: all enteropathogenic isolates except C. jejuni
[6] = E. coli ATCC 25922, inoculum 1.3 CFU 10^5/ml
[7] = E. coli Laboratory No. 523, inoculum 3.4 CFU 10^5/ml
[8] = Escherichia coli, ATCC25922, E. coli ATCC 25922 (reference strain), read-out: MIC
[9] = Escherichia coli, ATCC25922, E. coli ATCC 25922, inoculum 1.3 CFU 10^5/ml
[10] = Escherichia coli, E. coli Laboratory No. 523, inoculum 3.4 CFU 10^5/ml
[11] = Escherichia coli, E. coli clinical isolate (0.06/0.5), read-out: MIC

| Structure (SMILES) | MIC [1] | tolerability [2] | MIC [3, 6] | MIC [3, 7] | MIC [3, 8] | MBC [3, 9] | MBC [3, 10] | MIC [3, 11] | AUBTC (range) [4] | concentration inhibiting 100% of isolates [5] |
| --- | --- | --- | --- | --- | --- | --- | --- | --- | --- | --- |
| CO/N=C1\CN(c2nc3c(cc2F)c(=O)c(C(=O)O)cn3C2CC2)CC1CN (racemic) [Gemifloxacin, (R,S)-7-(3-aminomethyl-4-methoxyiminopyrrolidin-1-yl)-1-cyclopropyl-6-fluoro-4-oxo-1,4-dihydro-1,8-naphthyridine-3-carboxylic acid] | 0.125 to 2 µg/mL (≈ 0.321 to 5.14 µM) | well tolerated | 0.016 µg/mL (≈ 0.0411 µM) | 0.06 µg/mL (≈ 0.154 µM) | 0.016 µg/mL (≈ 0.0411 µM) | 0.016 µg/mL (≈ 0.0411 µM) | 0.06 µg/mL (≈ 0.154 µM) | 0.06 µg/mL (≈ 0.154 µM) | 321 (72-564) | 0.25 mg/L |
| CC1COc2c(N3CCN(C)CC3)c(F)cc3c(=O)c(C(=O)O)cn1c23 (stereo not drawn) [Ofloxacin, ofloxacin] |  | well tolerated | 0.06 µg/mL (≈ 0.166 µM) | 0.5 µg/mL (≈ 1.38 µM) | 0.06 µg/mL (≈ 0.166 µM) | 0.06 µg/mL (≈ 0.166 µM) | 0.5 µg/mL (≈ 1.38 µM) | 0.5 µg/mL (≈ 1.38 µM) | 414 (180-636) |  |
